Source: patent US7141592B2, “Substituted oxadiazolidinediones” (Wyeth, priority 2003, dated 2006)

target: T1, recombinant human plasminogen activator inhibitor-1 (PAI-1) (Homo sapiens, UniProt P05121); assay: Primary screen for the PAI-1 inhibition (chromogenic tPA activity, Spectrozyme-tPA); type: biochemical; details: compound at 100 μM
T1 construct: purchased Molecular Innovations, Royal Oak, Mich
Procedure: Test compounds are dissolved in DMSO at a final concentration of 10 mM, then diluted 100× in physiologic buffer. The inhibitory assay is initiated by the addition of the substituted oxadiazolidinedione (1–100 μM final concentration, maximun DMSO concentration of 0.2%) in a pH 6.6 buffer containing 140 nM recombinant human plasminogen activator inhibitor-1 (PAI-1; Molecular Innovations, Royal Oak, Mich.). Following a 1 hour incubation at room temperature, 70 nM of recombinant human tissue plasminogen activator (tPA) is added, and the combination of the substituted oxadiazolidinedione, PAI-1 and tPA is incubated for an additional 30 minutes. Following the second incubation, Spectrozyme-tPA (American Diagnostica, Greenwich, Conn.), a chromogenic substrate for tPA, is added and absorbance read at 405 nm at 0 and 60 minutes. Relative PAI-1 inhibition is equal to the residual tPA activity in the presence of the test compound and PAI-1. Control treatments include the complete inhibition of tPA by PAI-1 at the molar ratio employed (2:1), and the absence of any effect of the substituted oxadiazolidinedione on tPA alone.

T1 sequence (P05121 24-402): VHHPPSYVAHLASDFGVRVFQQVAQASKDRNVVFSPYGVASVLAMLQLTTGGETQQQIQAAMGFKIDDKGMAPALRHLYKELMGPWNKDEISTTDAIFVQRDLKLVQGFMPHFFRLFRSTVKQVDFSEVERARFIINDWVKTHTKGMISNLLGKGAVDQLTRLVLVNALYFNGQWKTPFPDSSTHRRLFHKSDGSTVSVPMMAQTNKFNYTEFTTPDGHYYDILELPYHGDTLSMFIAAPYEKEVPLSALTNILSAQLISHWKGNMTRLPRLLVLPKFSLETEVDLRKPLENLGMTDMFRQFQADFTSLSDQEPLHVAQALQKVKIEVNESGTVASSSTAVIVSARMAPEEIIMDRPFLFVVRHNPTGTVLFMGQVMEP

Row | Compound | inhibition at 100 µM [%] | % Inhibition @ 100 μM [%]
1 | 2-({4′-[(3-bromobenzyl)oxy]-1,1′-biphenyl-3-yl}methyl)-1,2,4-oxadiazolidine-3,5-dione [Compound 52] | – | 80
2 | 2-({4′-[(4-bromobenzyl)oxy]-1,1′-biphenyl-3-yl}methyl)-1,2,4-oxadiazolidine-3,5-dione [Compound 50] | – | 41
3 | 2-({4′-[(4-tert-butylbenzyl)oxy]-1,1′-biphenyl-3-yl}methyl)-1,2,4-oxadiazolidine-3,5-dione [Compound 48] | – | 23
4 | 2-[(3′-{[3-(trifluoromethyl)benzyl]oxy}-1,1′-biphenyl-3-yl)methyl]-1,2,4-oxadiazolidine-3,5-dione [Compound 41] | – | 81
5 | 2-[(3′-{[4-(trifluoromethyl)benzyl]oxy}-1,1′-biphenyl-3-yl)methyl]-1,2,4-oxadiazolidine-3,5-dione [Compound 37] | – | 3
6 | 2-[(4′-{[3,5-bis(trifluoromethyl)benzyl]oxy}-1,1′-biphenyl-3-yl)methyl]-1,2,4-oxadiazolidine-3,5-dione [Compound 51] | – | 65
7 | 2-[(4′-{[4-(trifluoromethyl)benzyl]oxy}-1,1′-biphenyl-3-yl)methyl]-1,2,4-oxadiazolidine-3,5-dione [Compound 49] | – | 28
8 | 2-{3-[3-(4-isobutylphenoxy)prop-1-ynyl]benzyl}-1,2,4-oxadiazolidine-3,5-dione [Compound 70] | – | 76
9 | 2-{4-[3-(4-isobutylphenoxy)prop-1-ynyl]benzyl}-1,2,4-oxadiazolidine-3,5-dione [Compound 64] | – | 65
10 | 2-{[4-(phenylethynyl)thien-2-yl]methyl}-1,2,4-oxadiazolidine-3,5-dione [Compound 58] | – | 45
11 | 2-{[5-(phenylethynyl)thien-2-yl]methyl}-1,2,4-oxadiazolidine-3,5-dione [Compound 59] | – | 60
12 | C=CCn1cc(Cn2oc(=O)[nH]c2=O)c2cc(OCc3ccc(C(C)(C)C)cc3)ccc21 [Compound 2, 2-({1-allyl-5-[(4-tert-butylbenzyl)oxy]-1H-indol-3-yl}methyl)-1,2,4-oxadiazolidine-3,5-dione] | 100 | –
13 | CCn1cc(Cn2oc(=O)[nH]c2=O)c2cc(OCc3ccc(C(C)(C)C)cc3)ccc21 [Compound 3, 2-({5-[(4-tert-butylbenzyl)oxy]-1-ethyl-1H-indol-3-yl}methyl)-1,2,4-oxadiazolidine-3,5-dione] | 9 | –
14 | C=CCn1cc(Cn2oc(=O)[nH]c2=O)c2cc(OCc3ccc(C(F)(F)F)cc3)ccc21 [Compound 4, 2-[(1-allyl-5-{[4-(trifluoromethyl)benzyl]oxy}-1H-indol-3-yl)methyl]-1,2,4-oxadiazolidine-3,5-dione] | 96 | –
15 | O=c1[nH]c(=O)n(Cc2cn(Cc3ccccc3)c3ccc(OCc4ccc(Br)cc4)cc23)o1 [Compound 14, 2-({1-benzyl-5-[(4-bromobenzyl)oxy]-1H-indol-3-yl}methyl)-1,2,4-oxadiazolidine-3,5-dione] | 100 | –
16 | C#CCn1cc(Cn2oc(=O)[nH]c2=O)c2cc(OCc3cc(C(F)(F)F)cc(C(F)(F)F)c3)ccc21 [Compound 15, 2-{[5-{[3,5-bis(trifluoromethyl)benzyl]oxy}-1-(2-propynyl)-1H-indol-3-yl]methyl}-1,2,4-oxadiazolidine-3,5-dione] | 91 | –
17 | O=c1[nH]c(=O)n(Cc2cn(Cc3ccccc3)c3ccc(OCc4ccc5ccccc5c4)cc23)o1 [Compound 22, 2-{[1-benzyl-5-(2-naphthylmethoxy)-1H-indol-3-yl]methyl}-1,2,4-oxadiazolidine-3,5-dione] | 92 | –

Further lines, with some results ahead:

Row | inhibition at 100 µM [%] | Compound | % Inhibition @ 100 μM [%]
18 | 100 | C=CCn1cc(Cn2oc(=O)[nH]c2=O)c2cc(OCc3cc(C(F)(F)F)cc(C(F)(F)F)c3)ccc21 [Compound 5, 2-[(1-allyl-5-{[3,5-bis(trifluoromethyl)benzyl]oxy}-1H-indol-3-yl)methyl]-1,2,4-oxadiazolidine-3,5-dione] | –
19 | 28 | CCn1cc(Cn2oc(=O)[nH]c2=O)c2cc(OCc3cc(C(F)(F)F)cc(C(F)(F)F)c3)ccc21 [Compound 6, 2-[(5-{[3,5-bis(trifluoromethyl)benzyl]oxy}-1-ethyl-1H-indol-3-yl)methyl]-1,2,4-oxadiazolidine-3,5-dione] | –
20 | 94 | O=c1[nH]c(=O)n(Cc2cn(Cc3ccccc3)c3ccc(OCc4cc(C(F)(F)F)cc(C(F)(F)F)c4)cc23)o1 [Compound 7, 2-[(1-benzyl-5-{[3,5-bis(trifluoromethyl)benzyl]oxy}-1H-indol-3-yl)methyl]-1,2,4-oxadiazolidine-3,5-dione] | –
21 | 94 | O=c1[nH]c(=O)n(Cc2cn(Cc3ccccc3)c3ccc(OCc4cccc(Br)c4)cc23)o1 [Compound 8, 2-({1-benzyl-5-[(3-bromobenzyl)oxy]-1H-indol-3-yl}methyl)-1,2,4-oxadiazolidine-3,5-dione] | –
22 | 59 | Cc1cccc(COc2ccc3c(c2)c(Cn2oc(=O)[nH]c2=O)cn3Cc2ccccc2)c1 [Compound 11, 2-({1-benzyl-5-[(3-methylbenzyl)oxy]-1H-indol-3-yl}methyl)-1,2,4-oxadiazolidine-3,5-dione] | –
23 | 100 | C#CCn1cc(Cn2oc(=O)[nH]c2=O)c2cc(OCc3ccc(C(F)(F)F)cc3)ccc21 [Compound 12, 2-[(1-(2-propynyl)-5-{[4-(trifluoromethyl)benzyl]oxy}-1H-indol-3-yl)methyl]-1,2,4-oxadiazolidine-3,5-dione] | –
24 | 100 | O=c1[nH]c(=O)n(Cc2cn(Cc3ccccc3)c3ccc(OCc4ccc(C(F)(F)F)cc4)cc23)o1 [Compound 13, 2-[(1-benzyl-5-{[4-(trifluoromethyl)benzyl]oxy}-1H-indol-3-yl)methyl]-1,2,4-oxadiazolidine-3,5-dione] | –
25 | 49 | C#CCn1cc(Cn2oc(=O)[nH]c2=O)c2cc(OCc3ccccc3Cl)ccc21 [Compound 17, 2-{[5-[(2-chlorobenzyl)oxy]-1-(2-propynyl)-1H-indol-3-yl]methyl}-1,2,4-oxadiazolidine-3,5-dione] | –
26 | 100 | C#CCn1cc(Cn2oc(=O)[nH]c2=O)c2cc(OCc3ccc(Cl)c(Cl)c3)ccc21 [Compound 18, 2-{[5-[(3,4-dichlorobenzyl)oxy]-1-(2-propynyl)-1H-indol-3-yl]methyl}-1,2,4-oxadiazolidine-3,5-dione] | –
27 | 79 | O=c1[nH]c(=O)n(Cc2cn(Cc3ccccc3)c3ccc(OCc4ccc(Cl)c(Cl)c4)cc23)o1 [Compound 19, 2-({1-benzyl-5-[(3,4-dichlorobenzyl)oxy]-1H-indol-3-yl}methyl)-1,2,4-oxadiazolidine-3,5-dione] | –
28 | 84 | C#CCn1cc(Cn2oc(=O)[nH]c2=O)c2cc(OCc3ccc4ccccc4c3)ccc21 [Compound 20, 2-{[5-(2-naphthylmethoxy)-1-(2-propynyl)-1H-indol-3-yl]methyl}-1,2,4-oxadiazolidine-3,5-dione] | –
29 | 98 | C=CCn1cc(Cn2oc(=O)[nH]c2=O)c2cc(OCc3ccc4ccccc4c3)ccc21 [Compound 21, 2-{[1-allyl-5-(2-naphthylmethoxy)-1H-indol-3-yl]methyl}-1,2,4-oxadiazolidine-3,5-dione] | –
